Converted amounts (≈) assume the structure as drawn. Like-named read-outs stand apart in the source and are kept apart here.
Assays:
Assay in all cases: MIC agar dilution assay (Table III)
Type in all cases: cell-based
STAPH AUR = details: 18 h, read-out: MINIMAL INHIBITORY CONC.
Protocol: (§1) TEST: 406 METHOD: AGAR DIL
(§2) MEDIUM: MUEL-HIN INOCULUM: 1.OE+04 - 5.OE+04
(§3) INCUBATION: 18 Hrs. 35 Celsius

KLEB PNEUM = details: 18 h, read-out: MINIMAL INHIBITORY CONC.
Protocol: as §1, §2, §3

MORG MORG = details: 18 h, read-out: MINIMAL INHIBITORY CONC.
Protocol: as §1, §2, §3

SERRAT MARC = details: 18 h, read-out: MINIMAL INHIBITORY CONC.
Protocol: as §1, §2, §3

ENTERO CLO = details: 18 h, read-out: MINIMAL INHIBITORY CONC.
Protocol: as §1, §2, §3

PROT RETT = details: 16 PROT RETT IO 83 21; 18 Hrs, 35 Celsius; read-out: MINIMAL INHIBITORY CONC.
Protocol: as §1, §2, §3

STREP FAEC = details: 18 h, read-out: MINIMAL INHIBITORY CONC.
Protocol: (§4) The results are summarized in Table III. |TEST: 406 METHOD: […] |MEDIUM: […] |INCUBATION: 18 Hrs. 35 Celsius | Aerobic: T

PROV STUA = details: 17 PROV STUA CMC 83 3; 18 Hrs, 35 Celsius; read-out: MINIMAL INHIBITORY CONC.
Protocol: as §4

CITRO DIV = details: 18 CITRO DIV K 82 24; 18 Hrs, 35 Celsius; read-out: MINIMAL INHIBITORY CONC.
Protocol: as §4

PSEU AERUG = details: 18 h, read-out: MINIMAL INHIBITORY CONC.
Protocol: as §4

ESCH COLI = details: 18 h, read-out: MINIMAL INHIBITORY CONC.
Protocol: as §4

[1] = 22 STAPH AUR VGH 84 47, 35 Celsius
[2] = 23 STAPH AUR K 82 26, 35 Celsius
[3] = 24 STAPH AUR CMC 83 131, 35 Celsius
[4] = 29 STAPH AUR ATCC 29213, 35 Celsius
[5] = 4 KLEB PNEUM CMC 84 31, 35 Celsius
[6] = 5 KLEB PNEUM MOR 84 24, 35 Celsius
[7] = 6 KLEB PNEUM IO 83 5, 35 Celsius
[8] = 13 MORG MORG VGH 84 12, 35 Celsius
[9] = 14 MORG MORG CMC 84 38, 35 Celsius
[10] = 15 MORG MORG MOR 84 45, 35 Celsius
[11] = 10 SERRAT MARC MOR 84 41, 35 Celsius
[12] = 11 SERRAT MARC CMC 83 74, 35 Celsius
[13] = 12 SERRAT MARC IO 83 63, 35 Celsius
[14] = 7 ENTERO CLO VGH 84 39, 35 Celsius
[15] = 8 ENTERO CLO K 84 10, 35 Celsius
[16] = 9 ENTERO CLO MOR 84 30, 35 Celsius
[17] = 25 STREP FAEC UCI 85 30, 35 Celsius
[18] = 26 STREP FAEC VGH 84 69, 35 Celsius
[19] = 27 STREP FAEC CMC 83 120, 35 Celsius
[20] = 19 PSEU AERUG K 84 16, 35 Celsius
[21] = 20 PSEU AERUG VGH 84 3, 35 Celsius
[22] = 21 PSEU AERUG CMC 83 20, 35 Celsius
[23] = 1 ESCH COLI MOR 84 20, 35 Celsius
[24] = 2 ESCH COLI VGH 84 19, 35 Celsius
[25] = 3 ESCH COLI CMC 84 50, 35 Celsius
[26] = 28 ESCH COLI ATCC 25922, 35 Celsius

Compound	MIC (STAPH AUR; [1])	MIC (STAPH AUR; [2])	MIC (STAPH AUR; [3])	MIC (STAPH AUR; [4])	MIC (KLEB PNEUM; [5])	MIC (KLEB PNEUM; [6])	MIC (KLEB PNEUM; [7])	MIC (MORG MORG; [8])	MIC (MORG MORG; [9])	MIC (MORG MORG; [10])	MIC (SERRAT MARC; [11])	MIC (SERRAT MARC; [12])	MIC (SERRAT MARC; [13])	MIC (ENTERO CLO; [14])	MIC (ENTERO CLO; [15])	MIC (ENTERO CLO; [16])	MIC (PROT RETT)	MIC (STREP FAEC; [17])	MIC (STREP FAEC; [18])	MIC (STREP FAEC; [19])	further results
CN1CC2CC1CN2c1cc2c(cc1F)c(=O)c(C(=O)O)cn2-c1ccc(F)cc1F (stereo not shown) [Example 9, 6-Fluoro-1-(2,4-difluorophenyl)-1,4-dihydro7-(5-methyl-2,5-diazabicyclo(2.2.1)hept-2-yl)-4-oxoquinoline-3-carboxylic acid]	0.03 µg/mL (≈ 0.0699 µM)	0.015 µg/mL (≈ 0.0349 µM)	0.5 µg/mL (≈ 1.16 µM)	0.03 µg/mL (≈ 0.0699 µM)	0.06 µg/mL (≈ 0.14 µM)	0.06 µg/mL (≈ 0.14 µM)	0.12 µg/mL (≈ 0.279 µM)	0.25 µg/mL (≈ 0.582 µM)	0.25 µg/mL (≈ 0.582 µM)	0.12 µg/mL (≈ 0.279 µM)	0.12 µg/mL (≈ 0.279 µM)	4 µg/mL (≈ 9.32 µM)	0.5 µg/mL (≈ 1.16 µM)	0.06 µg/mL (≈ 0.14 µM)	0.03 µg/mL (≈ 0.0699 µM)	0.06 µg/mL (≈ 0.14 µM)	0.06 µg/mL (≈ 0.14 µM)	0.5 µg/mL (≈ 1.16 µM)	0.5 µg/mL (≈ 1.16 µM)	0.5 µg/mL (≈ 1.16 µM)	MIC (PROV STUA): 4 µg/mL (≈ 9.32 µM); MIC (CITRO DIV): 0.03 µg/mL (≈ 0.0699 µM); MIC (PSEU AERUG; [20]): 1 µg/mL (≈ 2.33 µM); MIC (PSEU AERUG; [21]): 4 µg/mL (≈ 9.32 µM); MIC (PSEU AERUG; [22]): 0.5 µg/mL (≈ 1.16 µM); MIC (ESCH COLI; [23]): 0.015 µg/mL (≈ 0.0349 µM); MIC (ESCH COLI; [24]): 0.015 µg/mL (≈ 0.0349 µM); MIC (ESCH COLI; [25]): 0.06 µg/mL (≈ 0.14 µM); MIC (ESCH COLI; [26]): 0.03 µg/mL (≈ 0.0699 µM)
O=C(O)c1cn(-c2ccc(F)cc2F)c2cc(N3CC4CC3CN4)c(F)cc2c1=O (stereo not shown) [Example 11, 7-(2,5-diazabicyclo(2.2.1)hept-2-yl)-6-fluoro-1-(2,4-difluorophenyl)-1,4-dihydro-4-oxoquinoline3-carboxylic acid]	0.25 µg/mL (≈ 0.602 µM)	0.12 µg/mL (≈ 0.289 µM)	0.25 µg/mL (≈ 0.602 µM)	0.25 µg/mL (≈ 0.602 µM)	0.03 µg/mL (≈ 0.0722 µM)	0.06 µg/mL (≈ 0.144 µM)	0.06 µg/mL (≈ 0.144 µM)	0.06 µg/mL (≈ 0.144 µM)	0.12 µg/mL (≈ 0.289 µM)	0.03 µg/mL (≈ 0.0722 µM)	0.06 µg/mL (≈ 0.144 µM)	4 µg/mL (≈ 9.63 µM)	0.25 µg/mL (≈ 0.602 µM)	0.03 µg/mL (≈ 0.0722 µM)	0.015 µg/mL (≈ 0.0361 µM)	0.03 µg/mL (≈ 0.0722 µM)	0.03 µg/mL (≈ 0.0722 µM)	0.5 µg/mL (≈ 1.2 µM)	0.5 µg/mL (≈ 1.2 µM)	0.5 µg/mL (≈ 1.2 µM)	MIC (PROV STUA): 2 µg/mL (≈ 4.81 µM); MIC (CITRO DIV): 0.008 µg/mL (≈ 0.0193 µM); MIC (PSEU AERUG; [20]): 0.5 µg/mL (≈ 1.2 µM); MIC (PSEU AERUG; [21]): 1 µg/mL (≈ 2.41 µM); MIC (PSEU AERUG; [22]): 0.25 µg/mL (≈ 0.602 µM); MIC (ESCH COLI; [23]): 0.008 µg/mL (≈ 0.0193 µM); MIC (ESCH COLI; [24]): 0.008 µg/mL (≈ 0.0193 µM); MIC (ESCH COLI; [25]): 0.03 µg/mL (≈ 0.0722 µM); MIC (ESCH COLI; [26]): 0.008 µg/mL (≈ 0.0193 µM)

Reference: patent US5045549A, “Substituted 4-pyridone 3-carboxylic acid derivatives, method for their production and their pharmaceutical compositions” (priority 1986, dated 1991)
